Our source for the IC50 values is ChEMBL document CHEMBL1126399, “Synthesis and enzymatic properties of a deoxy analog of phosphatidylinositol” (Bioorg Med Chem Lett, 1992).

The assay is described as follows: Inhibition of phosphatidylinositol (PI) hydrolysis. The format is functional.

Structures are written as SMILES.

For `CCCCCCCCCCCCCCCC(=O)OC[C@H](COP(=O)(O)O[C@H]1C[C@@H](O)C(O)[C@@H](O)C1O)OC(=O)CCCCCCCCCCCCCCC` (stereo partly specified), 2 mM corresponded to half-maximal inhibition (IC50). This lies in the millimolar range.

One may read the IC50 as the concentration needed to halve the response being measured.
